From US20250339387A1, “MITOXANTHRONE DERIVATIVES AS RAS INHIBITORS” (KHR Biotec GmbH, priority 2022, published 2025) come the findings set out here.

Common to all, as to format: cell-based
Assay [1] deals with T1, KRAS G12V (Homo sapiens, UniProt P01116, G12V).
T1 construct: K, N and HRAS G12V (full length) was cloned with Xho I and Bgl Ito LgBit; expressed in transfected cells
The assay is described as follows: NanoBit assay for RAS activation (LgBiT-RAS / SmBiT-CRAF RBD). Conditions: 2 h with inhibitor in serum free DMEM. How it is done:
(§1) N-terminal LgBiT and C-terminal SmBiT construct was purchased from Promega and K, N and HRAS G12V (full length) was cloned with Xho I and Bgl Ito LgBit and CRAF Ras binding domain (1-149) was cloned with EcoRI and Bgl II to SmBit. For transfections, 1 μg or 2 μg of (12 well/6 well) plasmids were transfected into cells with 0.5 mM of PEI reagent in 100 μl or 200 μl PBS. One day after transfection, cells were harvested and seeded into 96 well white plates, half area (Greiner). After an additional day the medium was changed to serum free DMEM and the cells were incubated for 2 h with inhibitor. NanoGlo assay was performed according to the manufacturer's instructions. The luminescence was measured using Tecan infinite (Tecan).

In assay [2] the target is T2, HRAS G12V (Homo sapiens, UniProt P01112, G12V).
T2 construct: K, N and HRAS G12V (full length) was cloned with Xho I and Bgl Ito LgBit; expressed in transfected cells
The assay is described as above. Conditions: 2 h with inhibitor in serum free DMEM. The procedure: as §1

Assay [3] deals with T3, NRAS G12V (Homo sapiens, UniProt P01111, G12V).
T3 construct: K, N and HRAS G12V (full length) was cloned with Xho I and Bgl Ito LgBit; expressed in transfected cells
Described as above. Conditions: 2 h with inhibitor in serum free DMEM. How it is done: as §1

Assay [4] deals with BaF3 KRAS G12C cells. The experiment in a line: MTT assay for cell viability in 96 well cell culture plate. Conditions: Mus musculus, 48 h treatment. In general terms: Formazan colour is commonly taken as a measure of viable cells.
Assay [5] deals with KRAS mutants (G12V, G12C, G12D, G12C/Y96D, G13C, G13D, G13S, Q61K and Q61R). The assay is described as follows: NanoBiT assay for RAS GTP-loading in HeLa cells, LgBit-KRAS mutants and SmBit-CRAF-RBD. Conditions: 2 h in serum-free DMEM, normalized to DMSO. How it is done: NanoBiT assay for the RAS GTP-loading was performed in HeLa cells transfected with LgBit-KRAS mutants and SmBit-CRAF-RBD. Cells were treated with Mitoxantrone HCl for 2 h in serum-free DMEM. After incubation, the substrate for NanoLuc was added, and the luminescence was measured in a multiplate reader. Data were normalized to cells transfected with the indicated mutant and exposed to DMSO for 2 h. DMSO-treated cells were set as 1. The bars represent mean±SEM from 3 independent experiments.

Assay [6] has as its system BaF3 KRAS G12C/Y96D cells. The experiment in a line: MTT assay for cell viability in 96 well cell culture plate. Conditions: Mus musculus, 48 h treatment.
Assay [7] deals with T24 cells. The assay is described as follows: Soft agar colony formation assay with MTT readout. The settings on record: Homo sapiens; growth in soft agar, colonies stained with MTT, absorbance 570 nm, 3 independent experiments. The procedure: (§2) Metabolic activity was quantified using Cell Proliferation Kit I (Roche, Basel, Switzerland). Cells were seeded in 96-well cell culture plates, using 5000 cells per well for NCI-H358 cells. After treatment, 10 μl of MTT solution was added and incubated for 2 h in CO2 incubator. Then 100 μl of solubilization buffer was added to each well and incubated overnight in CO2 incubator. Cell viability, assessed by the amount of metabolized MTT, was quantified by measuring absorbance at 570 nm.
(§3) MTT assay for the growth of different tumor cell lines with RAS mutations in soft agar with Mitoxantrone hydrochloride. Shown are data from three independent experiments. NCI-H358, H358, H2122, ASPC-1, HCT-116, T24 and HT1080 cells were used for the soft agar colony formation assay. After the treatment with Mitoxantrone HCl, the colonies were stained with MTT and the value was quantified by measuring absorbance at 570 nm after solubilization. The results represent mean±SEM from 3 independent experiments.

The test system of assay [8] is ASPC1 cells. The assay is described as follows: Soft agar colony formation assay with MTT readout. Conditions: Homo sapiens, growth in soft agar, colonies stained with MTT, absorbance 570 nm, 3 independent experiments. The procedure: as §2, §3
The subject of assay [9] is HCT-116 cells. The experiment in a line: Soft agar colony formation assay with MTT readout. The settings on record: Homo sapiens, growth in soft agar, colonies stained with MTT, absorbance 570 nm, 3 independent experiments. How it is done:
as §2, §3

The subject of assay [10] is NCI-H358 cells. The assay is described as follows: Soft agar colony formation assay with MTT readout. The settings on record: Homo sapiens, growth in soft agar, colonies stained with MTT, absorbance 570 nm, 3 independent experiments. The procedure: as §2, §3
Assay [11] deals with HT1080 cells. The assay is described as follows: Soft agar colony formation assay with MTT readout. Conditions: Homo sapiens, HT-1080; growth in soft agar, colonies stained with MTT, absorbance 570 nm, 3 independent experiments. The procedure:
as §2, §3

Assay [12] deals with NCI-H2122 cells. The assay is described as follows: Soft agar colony formation assay with MTT readout. Conditions: Homo sapiens, growth in soft agar, colonies stained with MTT, absorbance 570 nm, 3 independent experiments. The procedure: as §2, §3
Assay [13] relates to sNF96.2 cells. The assay is described as follows: RASOpathie-Model, MTT assay for cell viability in 96 well cell culture plate. Conditions: 48 h treatment. How it is done:
FIG. 5: RASOpathie-Model of Mitoxantrone HCl; MTT assay for cell viability in 96 well cell culture plate
Cells were treated with Mitoxantrone HCl for 48 h and cell viability was evaluated by MTT assay. DMSO-treated cells were set as 1. The results shown are mean±SEM from 3 independent experiments.

T3 sequence (P01111 whole entry G12V): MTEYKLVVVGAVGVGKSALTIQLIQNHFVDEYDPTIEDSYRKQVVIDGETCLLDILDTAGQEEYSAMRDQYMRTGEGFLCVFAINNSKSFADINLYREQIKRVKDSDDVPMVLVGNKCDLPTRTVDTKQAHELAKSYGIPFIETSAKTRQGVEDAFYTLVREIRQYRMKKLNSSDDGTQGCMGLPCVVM

As usually defined, the IC50 is the concentration needed to halve the response being measured. Read a high IC50 as a need for much substance. On to `Cl.Cl.O=C1c2c(O)ccc(O)c2C(=O)c2c(NCCNCCO)ccc(NCCNCCO)c21` [Mitoxantrone HCl, 1,4-dihydroxy-5,8-bis({2-[(2-hydroxy-ethyl)amino]ethyl}amino)-9,10-anthrachinone dihydrochloride], for which the “RAS activation, K-RAS (NanoBit luminescence)” value in assay [1] is listed as “inhibits”. Also, the “RAS activation, H-RAS (NanoBit luminescence)” value in assay [2] is recorded as “inhibits”. Besides, the “RAS activation, N-RAS (NanoBit luminescence)” value in assay [3] is “inhibits”. Also, the IC50 in assay [4] turned out to be 24.2 µM; in [6], 24 µM; in assay [7] it was 0.43 µM; in assay [8] it was 0.6 µM; in assay [9], 0.27 µM; in assay [10] it was 1.5 µM. For the same compound, the IC50 was 0.13 µM in assay [11], 0.25 µM in [12] and 3.71 µM in assay [13]. The “RAS activation / GTP-loading of KRAS mutants (NanoBiT luminescence)” value in assay [5] is “inhibits”.
